Test system: patients with major depressive disorder (MDD)
Test: Open-label, flexible dose, 12-week study of memantine in major depressive disorder (MEM-MD-09): efficacy
Type: in vivo, human
Design: CGI-I mean score: scale not given here
Settings: for CGI-I mean score / Mean Change from Baseline in CGI-S / Mean Change from Baseline in HAM-D / Mean Change from Baseline in MADRS: ITT Population; for Mean Change from Baseline in CGI-S: baseline 4.3; for Mean Change from Baseline in HAM-D: baseline 30.0; for Mean Change from Baseline in MADRS: baseline 31.9
Description: The present study was a single-center, open-label, flexible dose, 12-week study designed to provide a preliminary assessment of the efficacy and safety of memantine in patients with major depressive disorder (MDD). In order to assess the efficacy of treatment on depressive symptomatology, the primary efficacy assessment was the Montgomery Depression Rating Scale (MADRS). Secondary efficacy assessments included the Hamilton Depression Rating Scale (HAM-D), the Clinical Global Impressions—Severity Scale (CGI-S), the Clinical Global Impressions—Improvement Scale (CGI-I), the Patient Global Evaluation (PGE), and the Quality of Life Scale (QOL).
Study Design. The study was designed as a single-center, open-label, flexible dose 12-week study. Memantine was to be administered at 20 mg/day (10 mg b.i.d.) (titrated over a 4 week period), and, if warranted, up-titrated to a maximum of 40 mg/day (20 mg b.i.d.) (titrated in increments of 10 mg/day after Week 4).
Entrance Criteria. Criteria for enrollment were as follows: (i) male or female outpatients between 18 and 80 years of age at screening; (ii) diagnosis of MDD consistent with DSM-IV; (iii) Montgomery Asberg Depression Rating Scale (MADRS) score of 22 or greater; and CGI severity score of 4 or greater. None of the patients had attempted suicide or were diagnosed as being at risk for committing suicide.
Endpoints. The primary endpoint was improvement according to Montgomery Asberg Depression Rating Scale (MADRS). Secondary endpoints were improvements according to the Hamilton Depression Rating Scale (HAM-D), the Clinical Global Impressions-Severity Scale (CGI-S), the Clinical Global Impressions-Improvement Scale (CGI-I), Patient Global Evaluation (PGE), and Quality of Life Scale (QOL).
MADRS. MADRS is either self-administered (MADRS-S) or interviewer administered evaluation of symptoms of depression in adults. MADRS evaluates ten areas of depressive symptomatology: apparent sadness, reported sadness, inner tension, reduced sleep, reduced appetite, concentration difficulties, lassitude, inability to feel, pessimistic thoughts, and suicidal thoughts. Each area is rated on a seven-point scale (0-6).
MADRS was administered to each of the study participants at baseline, and weeks 1, 2, 3, 4, 6, 8, 10 and 12.
HAM-D. HAM-D criteria were assessed at weeks 1, 2, 4, 8 and 12. HAM-D is a 24-item scale that evaluates depressed mood, vegetative and cognitive symptoms of depression, and comorbid anxiety symptoms. It provides ratings on current DSM-IV symptoms of depression, with the exceptions of hypersomnia, increased appetite, and concentration/indecision. There are several ways of analyzing HAM-D. According to one analysis, the first 17-items are rated on either a 5-point (0-4) or a 3-point (0-2) scale. In general, the 5-point scale items use a rating of 0=absent; 1=doubtful to mild; 2=mild to moderate; 3=moderate to severe; 4=very severe. A rating of 4 is usually reserved for extreme symptoms. The 3-point scale items used a rating of 0=absent; 1=probable or mild; 2=definite. The second analysis uses the same scale to rate the first 21 items, and the third analysis uses the scale to rate all 24 items. All three analyses were used in the present study and used statistically in the results.
Response to medication (i.e., memantine) was defined as a reduction in the HAM-D 24 score of 50%, while remission was defined as a reduction in the HAM-D total score to 7 or less.
DSM-IV. DSM-IV diagnostic criteria were determined at week 1 and again at the end of the study. […]

CC12CC3CC(C)(C1)CC(N)(C3)C2.Cl [Memantine, 1-amino-3,5-dimethyladamantane hydrochloride]
HAM-D ECDEU combination (cognitive disturbance factor) (12 week period): improved
shift in severity ranking (CGI-S) (12 week period, with the exception of one patient): improved to “mildly depressed” or to “not depressed”
HAM-D item 8, MADRS item 6 and DSM-IV criterion “h” (concentration, cognitive disturbance) (12 week treatment period): improved
reduction in MADRS and HAM-D (17-, 21-, and 24-question versions) at endpoint (LOCF analyses, endpoint): approximately 18 points
CGI-I mean score (Week 1, LOCF): 2.7
Mean Change from Baseline in CGI-S (Week 1, LOCF): −0.5
Mean Change from Baseline in HAM-D (Week 1, LOCF): −6.1
Mean Change from Baseline in MADRS (Week 1, LOCF): −7.9
CGI-I mean score (Week 1, OC): 2.7
Mean Change from Baseline in CGI-S (Week 1, OC): −0.7
Mean Change from Baseline in HAM-D (Week 1, OC): −8.2
Mean Change from Baseline in MADRS (Week 1, OC): −10.5
CGI-I mean score (Week 2, LOCF): 2.8
Mean Change from Baseline in CGI-S (Week 2, LOCF): −0.6
Mean Change from Baseline in HAM-D (Week 2, LOCF): −11.8
Mean Change from Baseline in MADRS (Week 2, LOCF): −12.1
CGI-I mean score (Week 2, OC): 2.8
Mean Change from Baseline in CGI-S (Week 2, OC): −0.6
Mean Change from Baseline in HAM-D (Week 2, OC): −11.8
Mean Change from Baseline in MADRS (Week 2, OC): −12.1
CGI-I mean score (Week 3, LOCF): 2.4
Mean Change from Baseline in CGI-S (Week 3, LOCF): −0.9
Mean Change from Baseline in MADRS (Week 3, LOCF): −14.3
CGI-I mean score (Week 3, OC): 2.3
Mean Change from Baseline in CGI-S (Week 3, OC): −1.0
Mean Change from Baseline in MADRS (Week 3, OC): −14.7
CGI-I mean score (Week 4, LOCF): 2.3
Mean Change from Baseline in CGI-S (Week 4, LOCF): −1.3
Mean Change from Baseline in HAM-D (Week 4, LOCF): −16.8
Mean Change from Baseline in MADRS (Week 4, LOCF): −15.6
CGI-I mean score (Week 4, OC): 2.1
Mean Change from Baseline in CGI-S (Week 4, OC): −1.4
Mean Change from Baseline in HAM-D (Week 4, OC): −20.8
Mean Change from Baseline in MADRS (Week 4, OC): −17.0
CGI-I mean score (Week 6, LOCF): 2.4
Mean Change from Baseline in CGI-S (Week 6, LOCF): −1.3
Mean Change from Baseline in MADRS (Week 6, LOCF): −15.0
CGI-I mean score (Week 6, OC): 2.4
Mean Change from Baseline in CGI-S (Week 6, OC): −1.3
Mean Change from Baseline in MADRS (Week 6, OC): −15.0
CGI-I mean score (Week 8, LOCF): 2.0
Mean Change from Baseline in CGI-S (Week 8, LOCF): −1.5
Mean Change from Baseline in HAM-D (Week 8, LOCF): −16.8
Mean Change from Baseline in MADRS (Week 8, LOCF): −18.6
CGI-I mean score (Week 8, OC): 1.9
Mean Change from Baseline in CGI-S (Week 8, OC): −1.6
Mean Change from Baseline in HAM-D (Week 8, OC): −19.0
Mean Change from Baseline in MADRS (Week 8, OC): −20.4
CGI-I mean score (Week 10, LOCF): 2.1
Mean Change from Baseline in CGI-S (Week 10, LOCF): −1.8
Mean Change from Baseline in MADRS (Week 10, LOCF): −18.5
CGI-I mean score (Week 10, OC): 2.3
Mean Change from Baseline in CGI-S (Week 10, OC): −1.6
Mean Change from Baseline in MADRS (Week 10, OC): −16.7
CGI-I mean score (Week 12, LOCF): 2.1
Mean Change from Baseline in CGI-S (Week 12, LOCF): −1.5
Mean Change from Baseline in HAM-D (Week 12, LOCF): −17.8
Mean Change from Baseline in MADRS (Week 12, LOCF): −18.5
CGI-I mean score (Week 12, OC): 2.3
Mean Change from Baseline in CGI-S (Week 12, OC): −1.3
Mean Change from Baseline in HAM-D (Week 12, OC): −16.0
Mean Change from Baseline in MADRS (Week 12, OC): −16.7
overall impression of improvement (CGI-I) (after 12 weeks): overall impression of improvement as measured using CGI-I in all patients with the exception of one
DSM-IV checklist: degree of symptomology (all DSM-IV categories, end of study): reduction in the degree of symptomology in all DSM-IV categories
improvement on the primary and all secondary efficacy variables (baseline to Week 12, LOCF and OC approaches): Significant improvement
onset of therapeutic benefit in the treatment of MDD (eight patients with MDD, first assessment): 1 week
patients considered “Very Much Improved” or “Much Improved” as measured by the CGI-I (end of Week 8): 6 of 7
patients responded to treatment, as measured by the MADRS and the HAM-D (end of Week 8, responder defined as 50% improvement from baseline): 5 of the 7
DSM-IV checklist: categories of appetite and agitation/retardation (end of study): complete remission of symptoms in all patients
overall therapeutic response compared to citalopram and escitalopram (memantine 20-40 mg/day, comparison with prior study SCT-MD-01): larger magnitude and faster onset of overall therapeutic response
appetite items HAM-D 12, MADRS item 5 and DSM-IV item “c” (overall scores versus baseline): decrease from baseline
HAM-D items 1, 2, 3 and 7 (specific items chosen for analysis): positive change
score of item 3 of HAM-D (suicide) (throughout visit 8): steady improvement
patients meeting criteria as CGI-I responders (week 12): 62.5%
mean change from baseline to endpoint on the HAM-D (week 12, printed without sign): about 17.8
mean change from baseline to endpoint on the MADRS (week 12, printed without sign): about 18.5
HAM-D item combinations for melancholy, anxiety, psychomotor retardation and insomnia (week 12 from baseline): improvement
